# Experimental data from patent US20190183798A1, “METHOD FOR TREATING TUMOR” (Johnpro Biotech Inc., priority 2016, published 2019).
# Columns and labels:
# [1] = system: HepG2 cells; assay: Absorption of dextran, CT-B or transferrin in HepG2 cells under specified treatments (flow cytometry), with or without wortmannin; assay type: cell-based
# Method: In the treatment of wortmannin, an inhibitor of macropinocytosis pathway, the HepG2 cells were treated with phosphate-buffered saline (PBS) or wortmannin at 37° C. for 15 minutes. After the administration of dextran, the cells were applied with 37° C. treatment, 42° C. treatment or mEHT treatment for 1 hour.
# The cells were analyzed by flow cytometry.
# [2] = system: HepG2 cells; assay: Absorption/retention of lipo-dox in HepG2 cells under specified treatments (flow cytometry, confocal microscopy); conditions: 37° C., 42° C. and mEHT treatments compared
compound,measurement,setting,value
transferrin,Absorption of transferrin by the cell compared with control group,"[1]; all treatment groups (37° C., 42° C. and mEHT), 5 μg/ml transferrin",enhanced absorption
dextran,Absorption of dextran to the cells compared with control group,"[1]; all treatment groups (37° C., 42° C. and mEHT), 1 mg/ml dextran",enhanced absorption
same,Fluorescence signal of dextran in cells treated with mEHT,[1]; mEHT treatment versus 37° C. and 42° C. treatments,highest fluorescence signals
CT-B: particle about 100 nm used as tested drug for endocytosis uptake,Absorption of CT-B by the cell compared with control group,"[1]; all treatment groups (37° C., 42° C. and mEHT), 2 μg/ml CT-B",enhanced absorption
"COc1cccc2c1C(=O)c1c(O)c3c(c(O)c1C2=O)C[C@@](O)(C(=O)CO)C[C@@H]3O[C@H]1C[C@H](N)[C@H](O)[C@H](C)O1 [dox, doxorubicin]",Enhancement of the absorption of dox without liposome encapsulation,[2],no obvious difference among the tested treatments
